The test system of one data set is A549. Nature of the data set: cells. In kind it is functional, cell-based. As to conditions: Homo sapiens, A549, 48 h.
A short description of data set [1]: Antiproliferative activity against human YCC-11 cells assessed as cell growth inhibition. In kind it is functional, cell-based.
In the next data set the target is Histone deacetylase 1 (Homo sapiens, UniProt Q13547). Nature of the data set: Inhibition of recombinant human HDAC1 expressed in baculovirus expression system using Ac-Leu-Gly-Lys (Ac)-AMC as substrate preincubated for 5 mins followed by substrate addition and measured after 30 mins by fluorescence microtiter plate reader assay.
Data set [2] concerns Jurkat. Put plainly: Effect on acetyl-SMC3 expression level in human Jurkat T cells at 0.1 to 0.4 uM incubated for 6 hrs by Western blot analysis. In kind it is functional, cell-based. As to conditions: dose 0.1-0.4 µM. For orientation: In western blotting, separated proteins are transferred to a membrane and probed.
The subject of data set [3] is B16-F10. Nature of the data set: Effect on acetyl-SMC3 expression level in mouse B16-F10 cells at 1 to 8 uM incubated for 6 hrs by Western blot analysis. As to conditions: dose 1-8 µM. In kind it is functional, cell-based.
Data set [4] has as its target T1, Protein deacetylase HDAC6 (Homo sapiens, UniProt Q9UBN7).
T1 sequence (Q9UBN7 whole entry): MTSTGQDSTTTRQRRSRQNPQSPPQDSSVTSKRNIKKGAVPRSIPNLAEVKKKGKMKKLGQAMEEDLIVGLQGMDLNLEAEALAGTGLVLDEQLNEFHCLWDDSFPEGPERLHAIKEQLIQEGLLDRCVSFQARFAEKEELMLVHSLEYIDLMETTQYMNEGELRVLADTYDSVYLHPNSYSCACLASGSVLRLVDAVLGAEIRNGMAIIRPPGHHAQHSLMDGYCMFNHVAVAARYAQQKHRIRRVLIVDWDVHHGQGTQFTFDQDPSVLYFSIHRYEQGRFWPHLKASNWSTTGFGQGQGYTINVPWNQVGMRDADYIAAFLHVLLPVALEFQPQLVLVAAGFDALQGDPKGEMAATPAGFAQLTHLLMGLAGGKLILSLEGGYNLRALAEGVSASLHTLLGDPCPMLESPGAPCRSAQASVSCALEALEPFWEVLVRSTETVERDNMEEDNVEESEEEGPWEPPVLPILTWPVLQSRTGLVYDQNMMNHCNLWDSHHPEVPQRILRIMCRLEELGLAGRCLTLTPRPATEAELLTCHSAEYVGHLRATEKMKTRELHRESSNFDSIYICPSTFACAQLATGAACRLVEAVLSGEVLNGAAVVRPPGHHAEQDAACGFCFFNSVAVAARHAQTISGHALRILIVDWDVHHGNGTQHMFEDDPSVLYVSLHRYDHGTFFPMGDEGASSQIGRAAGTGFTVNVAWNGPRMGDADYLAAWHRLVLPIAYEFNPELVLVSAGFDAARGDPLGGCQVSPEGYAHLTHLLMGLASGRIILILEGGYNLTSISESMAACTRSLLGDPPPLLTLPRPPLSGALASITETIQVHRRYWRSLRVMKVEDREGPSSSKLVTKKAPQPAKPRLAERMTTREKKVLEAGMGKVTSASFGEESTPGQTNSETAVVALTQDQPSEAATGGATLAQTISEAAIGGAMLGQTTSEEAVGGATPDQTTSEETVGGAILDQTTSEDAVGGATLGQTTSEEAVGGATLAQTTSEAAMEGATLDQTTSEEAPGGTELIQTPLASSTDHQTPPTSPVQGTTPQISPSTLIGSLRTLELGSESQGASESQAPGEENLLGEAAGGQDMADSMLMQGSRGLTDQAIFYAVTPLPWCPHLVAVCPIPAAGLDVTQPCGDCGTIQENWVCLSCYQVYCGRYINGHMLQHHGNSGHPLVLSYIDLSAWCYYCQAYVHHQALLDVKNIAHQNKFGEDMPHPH
Nature of the data set: Inhibition of recombinant human N-terminal GST tagged HDAC6 expressed in baculovirus infected Sf9 insect cells using Ac-Leu-Gly-Lys (Ac)-AMC as substrate preincubated for 5 mins followed by substrate addition and measured after 30 mins by fluorescence microtiter plate reader assay.

The test system of data set [5] is Jurkat. Nature of the data set: Induction of apoptosis in human Jurkat cells assessed as upregulation of Ku70 expression at 0.2 to 2 uM measured after 24 hrs by Western blot analysis. In kind it is functional, cell-based. As to conditions: dose 0.2-2 µM.
Data set [6] deals with B16-F10. Nature of the data set: Effect on acetyl-H3 expression level in mouse B16-F10 cells at 1 to 8 uM incubated for 6 hrs by Western blot analysis. As to conditions: dose 1-8 µM. In kind it is functional, cell-based.
For data set [7], the system named is B16-F10. Nature of the data set: Effect on acetyl-SMC3 expression level in mouse B16-F10 cells at 1 to 4 uM incubated for 6 hrs by Western blot analysis. In kind it is functional, cell-based. The settings on record: dose 1-4 µM.
Data set [8] is described as follows: Antiproliferative activity against human YCC3/7 cells assessed as cell growth inhibition. In kind it is functional, cell-based.
Data set [9] is described as follows: Apparent volume of distribution in Sprague-Dawley rat at 10 mg/kg, po measured upto 48 hrs by LC-MS/MS analysis. In kind it is ADME, organism-based. The settings on record: in vivo.
Data set [10] in a line: Half life in Sprague-Dawley rat at 10 mg/kg, po measured upto 48 hrs by LC-MS/MS analysis. In kind it is ADME, organism-based. As to conditions: in vivo.
Data set [11] has as its system B16-F10. Nature of the data set: Antitumor activity against mouse B16-F10 cells allografted in C57BL/6 mouse assessed as tumor growth inhibition at 50 mg/kg, ip administered daily for 14 days by caliper method (Rvb= 63%). In kind it is functional. The settings on record: 336 h, time 14 day, read-out: TGI.
Data set [12] in a line: Potency index, ratio of CAY10603 IC50 to test compound IC50 for antiproliferative activity against human YCC3/7 cells assessed as cell growth inhibition. In kind it is functional.
A short description of data set [13]: MRT(0 to t) in Sprague-Dawley rat at 10 mg/kg, po measured upto 48 hrs by LC-MS/MS analysis. As to conditions: in vivo. In kind it is ADME, organism-based.
Data set [14] can be described thus: Clearance in Sprague-Dawley rat at 10 mg/kg, po measured upto 48 hrs by LC-MS/MS analysis. In kind it is ADME, organism-based. The settings on record: in vivo.
Data set [15] in a line: AUC(0 to t) in Sprague-Dawley rat at 2 mg/kg, iv measured upto 48 hrs by LC-MS/MS analysis. The settings on record: in vivo. On the set-up: route intravenous, dose 2 mg/kg, time <=48. In kind it is ADME, organism-based.
For data set [16], the system named is B16-F10. Put plainly: Antitumour activity against mouse B16-F10 cells allografted in C57BL/6 mouse model assessed as increase in CD3 positive/CD8 positive cells in tumor at 50 mg/kg, ip administered for 14 days in presence of 2-(5-chloro-2-(3-cyanobenzyloxy)-4-((2-methylbiphenyl-3-yl)methoxy)benzylamino)-2-methylpropanoic acid by flow cytometry analysis (Rvb= 6.65%). As to conditions: time 14 day. In kind it is functional.

Data set [17] in a line: Clearance in Sprague-Dawley rat at 2 mg/kg, iv measured upto 48 hrs by LC-MS/MS analysis. In kind it is ADME, organism-based. As to conditions: in vivo.
The subject of a further data set is Mus musculus. Put plainly: Myelosuppression in C57BL/6 mouse assessed as change in granulocyte count at 50 mg/kg, IG administered once daily via gavage for 14 days. In kind it is toxicity, organism-based. The settings on record: in vivo, po, 336 h, time 14 day.
Data set [18] deals with B16-F10. Nature of the data set: Antitumour activity against mouse B16-F10 cells allografted in C57BL/6 mouse model assessed as increase in acetylated alpha tubulin expression level in tumor at 50 mg/kg, ip measured after 14 days by […] based microscopic analysis (Rvb =1.77%). In kind it is functional. As to conditions: time 14 day.
Data set [19] is described as follows: MRT(0 to t) in Sprague-Dawley rat at 2 mg/kg, iv measured upto 48 hrs by LC-MS/MS analysis. In kind it is ADME, organism-based. As to conditions: in vivo.
Data set [20] has as its system B16-F10. Put plainly: Antitumour activity against mouse B16-F10 cells allografted in C57BL/6 mouse model assessed as increase in CD3 positive/CD8 positive cells in tumor at 50 mg/kg, ip administered for 14 days by flow cytometry analysis (Rvb= 6.65%). In kind it is functional. As to conditions: time 14 day. Background: Flow cytometry measures light scatter and fluorescence of single cells or particles in a stream.

pIC50: −log10 of the molar value. Calls of active or inactive are those of the source.

Histone deacetylase 1, sequence (Q13547 whole entry): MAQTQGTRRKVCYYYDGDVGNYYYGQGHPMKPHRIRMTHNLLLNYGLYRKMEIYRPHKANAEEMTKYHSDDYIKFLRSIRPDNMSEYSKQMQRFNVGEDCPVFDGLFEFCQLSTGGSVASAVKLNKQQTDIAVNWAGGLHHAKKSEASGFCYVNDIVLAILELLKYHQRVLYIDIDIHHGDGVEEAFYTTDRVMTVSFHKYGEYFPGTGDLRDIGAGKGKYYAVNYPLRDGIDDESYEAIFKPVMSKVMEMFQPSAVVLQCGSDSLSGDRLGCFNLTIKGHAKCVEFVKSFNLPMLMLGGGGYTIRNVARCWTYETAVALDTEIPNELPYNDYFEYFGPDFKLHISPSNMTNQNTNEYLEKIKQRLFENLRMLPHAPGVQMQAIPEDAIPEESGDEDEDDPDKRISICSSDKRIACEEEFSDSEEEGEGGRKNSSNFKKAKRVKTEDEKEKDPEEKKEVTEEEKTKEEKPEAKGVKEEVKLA
Description for A549: Antiproliferative activity against human A549 cells assessed as inhibition of cell proliferation measured after 48 hrs by MTT assay

For the molecule `COc1ccc(-c2ncc(C(=O)NCCCCCCC(=O)NO)[nH]2)c(OC)c1`, the pIC50 (as a rule, −log10 of the IC50, conventionally taken in molar units) is 5.65 in the data set with A549; 5.89 in [1]; 5.33 on Histone deacetylase 1; 7.32 in data set [4]; 5.82 in data set [8]. Moreover, the outcome in the data set with Jurkat [2], with B16-F10 [3], in the data set with B16-F10 [6] and in the data set on B16-F10 [7] was Active. In addition, in the data set with Jurkat [5], the result was inactive.
With `COc1ccc(-c2ncc(C(=O)NCCCCCCC(=O)NO)s2)c(OC)c1`, the Vz/F in [9] amounted to 1485.8 L/kg. Further, in data set [10], the half-life (commonly the time needed for the level to fall by half in the phase considered) is 5.8 h. For the same molecule, the inhibition in vivo at 50 mg/kg with B16-F10 [11] was found to be 48%. In [12], the “Ratio IC50” value is listed as 12. For the same molecule, the pIC50 in the data set on A549 is 5.72; in data set [1] it was 6.04; on Histone deacetylase 1, 5.50; in data set [4], 7.51; in data set [8], 5.97. The values for the mean residence time MRT last at 48 h in data set [13] and in [19] were 7.4 h and 1.1 h, respectively. In data set [14], this molecule had a CL of 2402 mL/min/kg. Moreover, the AUC(0-t) (commonly the area under the concentration-time curve up to a stated or last time point) at 48 h in data set [15] is 318 ng·h/mL. Moreover, the Activity in the data set on B16-F10 [16] is listed as 16.5%; with Mus musculus, “Non-Toxic”; with B16-F10 [18], 43.6%; with B16-F10 [20], 6.81%. Moreover, in data set [17], the clearance (usually the volume of plasma or blood freed of the substance per unit of time) was 105 mL/min/kg. For the same molecule, the outcome in the data set on Jurkat [2], in the data set with B16-F10 [3], in the data set on B16-F10 [6] and with B16-F10 [7] was Active. The outcome with Jurkat [5] was inactive.

(Values after ChEMBL document CHEMBL5042524, “Discovery of Novel Histone Deacetylase 6 (HDAC6) Inhibitors with Enhanced Antitumor Immunity of Anti-PD-L1 Immunotherapy in Melanoma” (J Med Chem, 2022).)
